From US20240116951A1, “HETEROCYCLIC COMPOUNDS AND USES THEREOF” (Kumquat Biosciences Inc., priority 2022, published 2024) come the findings set out here.

Type in all cases: binding
One test addresses T1, KRAS G12D (Homo sapiens, UniProt P01116, G12D).
T1 construct: made in house; host or cells: E. coli, e.g. BL21 (DE3)
Kind of test: HTRF assay of K-Ras G12D interaction with SOS1 (PPI-HTRF). As to conditions: HTRF, 5 nM KRAS G12D; read-out: PPI-HTRF-5 nM KRAS G12D. The source says:
(§1) This assay can be also used to assess a selective inhibition or reduction of signaling output of a mutant Ras protein relative to a wildtype, or relative to a different mutant Ras protein. For example, the equilibrium interaction of wildtype Kras or K-Ras mutant (e.g., wildtype or a mutant thereof including those mentioned in Example 4) with SOS1 (e.g., hSOS1) can be assessed as a proxy or an indication for a subject compound's ability to bind and inhibit Ras protein. HTRF assay detects from (i) a fluorescence resonance energy transfer (FRET) donor (e.g., antiGST-Europium) that is bound to GST-tagged K-Ras mutant to (ii) a FRET acceptor (e.g., anti-6His-XL665) bound to a His-tagged hSOS1.
(§2) The assay buffer can contain ˜5 mM HEPES pH 7.4, ˜150 mM NaCl, ˜1 mM DTT, 0.05% BSA and 0.0025% (v/v) Igepal. A Ras working solution is prepared in an assay buffer containing typically a suitable amount of the protein construct (e.g., GST-tagged K-Ras mutant) and the FRET donor (e.g., antiGST-Eu(K) from Cisbio, France). A SOS1 working solution is prepared in an assay buffer containing suitable amount of the protein construct (e.g., His-hSOS1) and the FRET acceptor (e.g., anti-6His-XL665 from Cisbio, France). A suitable amount of the protein construct will depend on the range of activity or range of IC50 values being detected or under investigation. For detecting IC50 within a range of 500 nM, the protein constructs of the same range of molarity can be utilized. […] A fixed volume of DMSO with or without test compound is transferred into a 384-well plate. Ras working solution is added to all wells of the test plate. SOS1 working solution is added to all wells except for those that are subsequently filled the inhibitor control solution. Upon incubation for about 10 minutes or longer, the fluorescence is measured with a M1000Pro plate reader (Tecan) using HTRF detection (excitation 337 nm, emission 1: 620 nm, emission 2: 665 nm). Compounds are tested in duplicates at different concentrations (for example, 10 μM, 2.5 μM, 0.63 μM, 0.16 μM, 0.04 μM, 0.01 μM test compound). The ratiometric data (i.e., emission 2 divided by emission 1) is used to calculate IC50 values against Ras using GraphPad Prism (GraphPad software). Following this general procedure, samples were tested with or without a subject compound disclosed herein including compounds exemplified in Table 1 to assess their abilities to inhibit a mutant K-Ras relative to another mutant K-Ras or wildtype K-Ras. Signaling output measured in terms of IC50 values can be obtained, a ratio of IC50 against one mutant relative to another mutant can be calculated. For instance, a selective reduction of K-Ras G12D signaling output can be evidenced by a ratio greater than one. In particular, a selective reduction of K-Ras G12D signaling relative to K-Ras WT signaling is evidenced as the ratio of IC50 (against K-Ras WT) to IC50 (against K-Ras G12D) is greater than 1.
A general note: TR-FRET usually uses a lanthanide donor and a delayed reading to cut background.

The next test has as its target T2, KRAS WT (Homo sapiens, UniProt P01116).
T2 construct: made in house; host or cells: E. coli, e.g. BL21 (DE3)
Briefly: HTRF assay of wildtype K-Ras interaction with SOS1 (PPI-HTRF). The conditions noted are these: HTRF, 5 nM KRAS WT; read-out: PPI-HTRF-5 nM KRAS WT.
Excerpt: as §1, §2

The target of another test is T3, KRAS G12S (Homo sapiens, UniProt P01116, G12S).
T3 construct: made in house; host or cells: E. coli, e.g. BL21 (DE3)
T3 sequence (P01116 1-188 isoform P01116-2 G12S): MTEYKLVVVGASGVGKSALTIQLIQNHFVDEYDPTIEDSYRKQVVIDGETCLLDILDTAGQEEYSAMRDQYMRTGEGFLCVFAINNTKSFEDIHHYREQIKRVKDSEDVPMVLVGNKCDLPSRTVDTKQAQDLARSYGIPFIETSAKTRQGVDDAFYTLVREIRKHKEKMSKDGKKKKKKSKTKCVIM
Kind of test: HTRF assay of K-Ras G12S interaction with SOS1 (PPI-HTRF). As to conditions: 5 nM KRAS G12S, read-out: PPI-HTRF-5 nM KRAS G12S.
Excerpt: as §1, §2

pIC50: −log10 of the molar value.

T1 sequence (P01116 1-188 isoform P01116-2 G12D): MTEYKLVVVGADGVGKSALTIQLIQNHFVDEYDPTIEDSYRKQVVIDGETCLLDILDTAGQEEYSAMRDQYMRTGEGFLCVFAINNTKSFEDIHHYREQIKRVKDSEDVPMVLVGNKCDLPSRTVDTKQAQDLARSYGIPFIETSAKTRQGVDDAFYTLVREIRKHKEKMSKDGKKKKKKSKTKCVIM
T2 sequence (P01116 1-188 isoform P01116-2): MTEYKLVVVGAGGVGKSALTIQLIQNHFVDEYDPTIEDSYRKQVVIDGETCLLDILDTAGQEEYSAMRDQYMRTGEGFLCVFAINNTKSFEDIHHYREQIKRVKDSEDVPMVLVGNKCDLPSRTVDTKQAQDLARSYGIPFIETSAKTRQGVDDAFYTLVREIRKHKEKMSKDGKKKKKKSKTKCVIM

`N#Cc1c(N)sc2c(F)ccc(-c3c(Cl)cc4c(N5CCC6(CCN6C(=O)C(F)Cl)C5)nc(OC[C@@]56CCCN5C[C@H](F)C6)nc4c3F)c12` (stereo partly drawn) [Compound 244, 2-amino-4-(6-chloro-4-(1-(2-chloro-2-fluoroacetyl)-1,6-diazaspiro[3.4]octan-6-yl)-8-fluoro-2-(((2R,7aS)-2-fluorotetrahydro-1H-pyrrolizin-7a(5H)-yl)methoxy)quinazolin-7-yl)-7-fluorobenzo[b]thiophene-3-carbonitrile]: the pIC50 on KRAS G12D, on KRAS WT and on KRAS G12S was above 5.30 in each case. Regarding `N#Cc1c(N)sc2c(F)ccc(-c3c(Cl)cc4c(N5CCC6(CCN6C(=O)n6cncn6)C5)nc(OC[C@@]56CCCN5C[C@H](F)C6)nc4c3F)c12` (stereo partly drawn) [Compound 272, 4-(4-(1-(1H-1,2,4-triazole-1-carbonyl)-1,6-diazaspiro[3.4]octan-6-yl)-6-chloro-8-fluoro-2-(((2R,7aS)-2-fluorotetrahydro-1H-pyrrolizin-7a(5H)-yl)methoxy)quinazolin-7-yl)-2-amino-7-fluorobenzo[b]thiophene-3-carbonitrile], the pIC50 at KRAS G12S is above 5.30. As for `Nc1nc2c(-c3c(Cl)cc4c(N5CCCC6(CCN6)C5)nc(OC[C@@]56CCCN5C[C@H](F)C6)nc4c3F)ccc(F)c2s1` (stereo partly drawn) [Compound 209, 4-(6-chloro-8-fluoro-2-(((2R,7aS)-2-fluorotetrahydro-1H-pyrrolizin-7a(5H)-yl)methoxy)-4-(1,6-diazaspiro[3.5]nonan-6-yl)quinazolin-7-yl)-7-fluorobenzo[d]thiazol-2-amine], the pIC50 on KRAS G12S is above 5.30. On to `Cc1ncn(C(=O)N2CC[C@]23CCN(c2nc(OC[C@@]45CCCN4C[C@H](F)C5)nc4c(F)c(-c5ccc(F)c6sc(N)c(C#N)c56)c(Cl)cc24)C3)n1` [Compound 250, 2-amino-4-(6-chloro-8-fluoro-2-(((2R,7aS)-2-fluorotetrahydro-1H-pyrrolizin-7a(5H)-yl)methoxy)-4-((S)-1-(3-methyl-1H-1,2,4-triazole-1-carbonyl)-1,6-diazaspiro[3.4]octan-6-yl)quinazolin-7-yl)-7-fluorobenzo[b]thiophene-3-carbonitrile], for which, on KRAS G12S, the pIC50 is above 5.30. Regarding `Nc1nc2c(-c3c(Cl)cc4c(N5CC6(CCCCN6)C5)nc(OCC56CCCN5C[C@H](F)C6)nc4c3F)ccc(F)c2s1` (stereo partly drawn) [Compound 220, 4-(6-chloro-8-fluoro-2-(((2R)-2-fluorotetrahydro-1H-pyrrolizin-7a(5H)-yl)methoxy)-4-(2,5-diazaspiro[3.5]nonan-2-yl)quinazolin-7-yl)-7-fluorobenzo[d]thiazol-2-amine], the pIC50 on KRAS G12D and at KRAS WT was above 5.30 each time. Consider `N#Cc1c(N)sc2c(F)ccc(-c3c(Cl)cc4c(N5CCCC6(CCCN6)C5)nc(OC[C@@]56CCCN5C[C@H](F)C6)nc4c3F)c12` (stereo partly drawn) [Compound 252, 2-amino-4-(6-chloro-8-fluoro-2-(((2R,7aS)-2-fluorotetrahydro-1H-pyrrolizin-7a(5H)-yl)methoxy)-4-(1,7-diazaspiro[4.5]decan-7-yl)quinazolin-7-yl)-7-fluorobenzo[b]thiophene-3-carbonitrile], for which the pIC50 at KRAS G12S is above 5.30. `N#Cc1c(N)sc2c(F)ccc(-c3c(Cl)cc4c(N5CC[C@@]6(CCN6C(=O)n6cncn6)C5)nc(OC[C@@]56CCCN5C[C@H](F)C6)nc4c3F)c12` (single isomer, unassigned) [Compound 247]: the pIC50 at KRAS G12S was above 5.30. On to `N#Cc1c(N)sc2c(F)ccc(-c3c(Cl)cc4c(N5CCCC6(CCN6)C5)nc(OC[C@@]56CCCN5C[C@H](F)C6)nc4c3F)c12` (stereo partly drawn) [Compound 260, 2-amino-4-(6-chloro-8-fluoro-2-(((2R,7aS)-2-fluorotetrahydro-1H-pyrrolizin-7a(5H)-yl)methoxy)-4-(1,6-diazaspiro[3.5]nonan-6-yl)quinazolin-7-yl)-7-fluorobenzo[b]thiophene-3-carbonitrile], for which the pIC50 at KRAS G12S is above 5.30. As to `N#Cc1c(N)sc2c(F)ccc(-c3c(Cl)cc4c(N5CC6(CCN6C(=O)n6cncn6)CC5COC(F)F)nc(OC[C@@]56CCCN5C[C@H](F)C6)nc4c3F)c12` (stereo partly drawn) [Compound 348, 2-amino-4-(6-chloro-4-(7-((difluoromethoxy)methyl)-1-(1H-1,2,4-triazole-1-carbonyl)-1,6-diazaspiro[3.4]octan-6-yl)-8-fluoro-2-(((2R,7aS)-2-fluorotetrahydro-1H-pyrrolizin-7a(5H)-yl)methoxy)quinazolin-7-yl)-7-fluorobenzo[b]thiophene-3-carbonitrile], the pIC50 at KRAS G12S was above 5.30. On the same count and under the same terms, the same measure for `C[C@H](Oc1nc(N2CC[C@@]3(CCN3C(=O)n3cncn3)C2)c2cc(Cl)c(-c3ccc(F)c4sc(N)c(C#N)c34)c(F)c2n1)[C@@H]1CCCN1C` (single isomer, unassigned) [Compound 301]: above 5.30. On the same count and under the same terms, the same measure for `Cc1ncn(C(=O)N2CC[C@@]23CCN(c2nc(OC[C@@]45CCCN4C[C@H](F)C5)nc4c(F)c(-c5ccc(F)c6sc(N)c(C#N)c56)c(Cl)cc24)C3)n1` [Compound 339, 2-amino-4-(6-chloro-8-fluoro-2-(((2R,7aS)-2-fluorotetrahydro-1H-pyrrolizin-7a(5H)-yl)methoxy)-4-((R)-1-(3-methyl-1H-1,2,4-triazole-1-carbonyl)-1,6-diazaspiro[3.4]octan-6-yl)quinazolin-7-yl)-7-fluorobenzo[b]thiophene-3-carbonitrile]: above 5.30; for `N#Cc1c(N)sc2c(F)ccc(-c3c(Cl)cc4c(N5CCCC6(CCCN6C(=O)n6cncn6)C5)nc(OC[C@@]56CCCN5C[C@H](F)C6)nc4c3F)c12` (stereo partly drawn) [Compound 246, 4-(4-(1-(1H-1,2,4-triazole-1-carbonyl)-1,7-diazaspiro[4.5]decan-7-yl)-6-chloro-8-fluoro-2-(((2R,7aS)-2-fluorotetrahydro-1H-pyrrolizin-7a(5H)-yl)methoxy)quinazolin-7-yl)-2-amino-7-fluorobenzo[b]thiophene-3-carbonitrile]: above 5.30. Take `Nc1nc2c(-c3c(Cl)cc4c(N5CC6(CNCCN6)C5)nc(OC[C@@]56CCCN5C[C@H](F)C6)nc4c3F)ccc(F)c2s1` [Compound 251, 4-(6-chloro-8-fluoro-2-(((2R,7aS)-2-fluorotetrahydro-1H-pyrrolizin-7a(5H)-yl)methoxy)-4-(2,5,8-triazaspiro[3.5]nonan-2-yl)quinazolin-7-yl)-7-fluorobenzo[d]thiazol-2-amine]: the pIC50 on KRAS G12D was above 5.30; at KRAS G12S, below 5.30. With `N#CCC1CN(c2nc(OC[C@@]34CCCN3C[C@H](F)C4)nc3c(F)c(-c4ccc(F)c5sc(N)c(C#N)c45)c(Cl)cc23)CC12CCN2C(=O)n1cnc(C(F)F)n1` (stereo partly drawn) [Compound 330, (4R)-2-amino-4-(6-chloro-4-(8-(cyanomethyl)-1-(3-(difluoromethyl)-1H-1,2,4-triazole-1-carbonyl)-1,6-diazaspiro[3.4]octan-6-yl)-8-fluoro-2-(((2R,7aS)-2-fluorotetrahydro-1H-pyrrolizin-7a(5H)-yl)methoxy)quinazolin-7-yl)-7-fluorobenzo[b]thiophene-3-carbonitrile], the pIC50 at KRAS G12S was above 5.30. As for `N#Cc1c(N)sc2c(F)ccc(-c3c(Cl)cc4c(N5CCCCC6(CCCN6C(=O)n6cncn6)C5)nc(OC[C@@]56CCCN5C[C@H](F)C6)nc4c3F)c12` (stereo partly drawn) [Compound 231, 4-(4-(1-(1H-1,2,4-triazole-1-carbonyl)-1,7-diazaspiro[4.6]undecan-7-yl)-6-chloro-8-fluoro-2-(((2R,7aS)-2-fluorotetrahydro-1H-pyrrolizin-7a(5H)-yl)methoxy)quinazolin-7-yl)-2-amino-7-fluorobenzo[b]thiophene-3-carbonitrile], the pIC50 on KRAS G12S was above 5.30.
